Patent US20240294478A1, “ANTI-CANCER COMPOUNDS AND METHODS OF USE” (YALE UNIVERSITY, priority 2021, published 2024)

How the values were obtained:
[1] = system: DNA repair foci in LN229 MGMT+/−, MMR+/− cells; test: Immunofluorescence foci assays (γH2AX, 53BP1, pRPA); format: cell-based, human; details: 20 μM, 2 to 48 h
Method: FIGS. 5A-5K: KL-50 activates DNA damage response pathways and cycle arrest in MGMT-cells, independent of MMR, and induces sensitivity in cells deficient in ICL or HR repair. […] Columns, mean; error bars, SD; n 5 technical replicates. FIGS. 5D-5K: KL-50 induces activation of the ATR-CHK1 and ATM-CHK2 signaling axes and delayed DNA repair foci formation in MGMT-deficient cells, independent of MMR status. […] Treatment with 1 μM doxorubicin for 24 h (Doxo) served as a positive control for p-CHK1 activation. […] Points, mean % cells with >10 foci; error bars, SD; n >5 technical replicates. […] Points, % cells with 10 foci, n>250 cells per condition.
Immunofluorescence Foci Assays. High-throughput immunofluorescence foci assays were performed at the Yale Center for Molecular Discovery (YCMD). Cells were seeded at 2000 cells/well in black polystyrene flat bottom 384-well plates (Greiner Bio-One) and allowed to adhere overnight. Compound addition was performed utilizing a Labcyte Echo 550 liquid handler (Beckman Coulter), with 6 replicates per test condition and 12 replicates per control condition. Following drug incubation, cells were fixed and stained for phospho-SER139-H2AX (yH2AX), 53BP1, or phospho-SER33-RPA2 (pRPA) as follows. […]

MGMT−/MMR− cells = test: IR alkaline comet assay, LN229 MGMT-/MMR-, time course; format: cell-based, human; details: time points 2-24 h
Method: The IR alkaline comet assay, adapted for ICL detection was performed to determine if ICLs were formed in MGMT-cells treated with KL-50. In this assay, cells were sequentially exposed to genotoxins and ionizing radiation, and then analyzed by single cell alkaline gel electrophoresis. Attenuation of the IR-induced comet tail is indicative of ICL formation.
IR Alkaline Comet Assay. This assay was performed utilizing the CometAssay™ Kit (Trevigen) according to the alkaline assay protocol, with the addition of slide irradiation post-lysis. Cells were trypsinized, washed with 1×PBS, added to melted Comet LMAgarose (Trevigen), and spread on Trevigen CometSlides at a density of 1000 cells per sample in 50 μL. Lysis solution (Trevigen) with 10% DMSO was added overnight at 4° C. Slides were removed from lysis buffer and irradiated to 0 or 10 Gy using an XRAD 320 X-Ray System (Precision X-Ray) at 320 kV, 12.5 mA, and 50.0 cm SSD, with a 2 mm Al filter and 20 cm×20 cm collimator. Slides were then placed in alkaline buffer (200 mM NaOH, 1 mM EDTA) for 45 min, followed by electrophoresis in 850 mL alkaline buffer for 45 min at 4° C. Slides were washed and stained with SYBR gold (Invitrogen) per Trevigen assay protocol. Slides were imaged on a Cytation 3 imaging reader (BioTek), and comets were analyzed using CometScore 2.0 software (TriTek).

SMILES	γH2AX, 53BP1, pRPA foci formation [1]	DNA damage in unirradiated samples (MGMT−/MMR− cells)	DNA mobility after IR, rate of ICL formation (MGMT−/MMR− cells)
NC(=O)c1ncn2c(=O)n(CCF)nnc12 [KL-50]	induced a maximal foci response at 48 h, specifically in MGMT-cells and irrespective of MMR status	maximal damage at 2 h	time-dependent decrease in DNA mobility
Cn1nnc2c(C(N)=O)ncn2c1=O [TMZ, 4-methyl-5-oxo-2,3,4,6,8-pentazabicyclo[4.3.0]nona-2,7,9-triene-9-carboxamide, reference compound]	induced a comparable response in MGMT-cells, but this was abolished in the absence of functional MMR	maximal damage at 2 h	did not induce a statistically significant decrease in DNA migration within 24 h
